The target of one assay is human P2Y12 receptor (Homo sapiens, UniProt Q9H244). Nature of the assay: Human P2Y12 recombinant cell membrane binding assay with 33P 2MeS-ADP. To be noted: competition against 33P 2MeS-ADP, membranes of CHO cells with recombinant human P2Y12 receptor. The procedure:
The ability of the compounds of the formula Ito inhibit the P2Y12 receptor can be assessed by determining the concentration of the compound of the formula I that binds to the human P2Y12 Recombinant Cell Membrane Binding Assay with 33P 2MeS-ADP.
Human P2Y12 Recombinant Cell Membrane Binding Assay
The ability of a test compound to bind to the P2Y12 receptor was evaluated in a recombinant cell membrane binding assay. In this competitive binding assay, the test compound competed against a radiolabeled agonist for binding to the P2Y12 receptor, expressed on the cell membrane. Inhibition of binding of the labeled material was measured and correlated to the amount and potency of the test compound. This binding assay is a modification of the procedure described by Takasaki, J. et. al, Mol. Pharmacol., 2001, Vol. 60, pg. 432. A membrane preparation was prepared from Chinese Hamster Ovary (CHO) cells with recombinant expression of the human P2Y12 receptor according to standard procedures as a source of P2Y12.
To a 96-well microtiterplate the following were added: a) 24 μl of assay buffer (10 mM HEPES, 138 mM NaCl, […] KCl, 12 mM NaHCO3, 1 mM EDTA-Na, 0.1% BSA, pH 7.4) b) 1 μL compound in DMSO c) 50 μL P2Y12 CHO membrane (20 μg/ml) and after 15 min at RT d) 25 μL of 1.61 nM 33P 2MeS-ADP (Perkin Elmer NEN custom synthesis, specific activity ˜2100 Ci/mmol) made in assay buffer.
After 20 min incubation at RT samples were transferred to 96-well microtiter filterplates (Millipore HTS GF/B), pre-wetted for 20 min with 300 μL of stop buffer (10 mM HEPES, 138 mM NaCl pH 7.4) and then filtered through completely with a Millipore plate vacuum. Next, wells were washed four times with 400 μl/well of stop buffer on a plate vacuum. The plate was disassembled and allowed to air dry overnight with the filter side up over night. The filter plates were snapped into adapter plates and 0.1 mL of Microscint 20 Scintillation Fluid (Perkin Elmer #6013621) was added to each well. The top of the filterplate was sealed with plastic plate covers. The sealed filterplate were incubated 2 hours at RT. A Microbeta Scintillation Counter was used to measure counts.
Compounds were diluted as 10 mM DMSO stocks and tested in a four-point, five-fold dilution series run in triplicate beginning at 10 μM, final concentration. Data were analyzed using a four-parameter curve fit with a fixed minimum and maximum experimentally defined as the average positive and negative controls on each plate.

The subject of assay [1] is human platelet rich plasma. The experiment in a line: Inhibition of human platelet aggregation, 96-well assay. The assay is classed as cell-based. Particulars: Homo sapiens, Platelet, 20 min. The gist of the method: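 ADP-induced aggregation read as 650 nm absorbance every minute for 20 min at 37 °C, with shaking between reads. PRP (~3×E8 platelets/ml, diluted with PPP, ACD-A blood from healthy volunteers) was exposed to compound for 5 min before adding a 40 μM ADP stock (15 μl into 150 μl).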

human P2Y12 receptor, sequence (Q9H244 whole entry): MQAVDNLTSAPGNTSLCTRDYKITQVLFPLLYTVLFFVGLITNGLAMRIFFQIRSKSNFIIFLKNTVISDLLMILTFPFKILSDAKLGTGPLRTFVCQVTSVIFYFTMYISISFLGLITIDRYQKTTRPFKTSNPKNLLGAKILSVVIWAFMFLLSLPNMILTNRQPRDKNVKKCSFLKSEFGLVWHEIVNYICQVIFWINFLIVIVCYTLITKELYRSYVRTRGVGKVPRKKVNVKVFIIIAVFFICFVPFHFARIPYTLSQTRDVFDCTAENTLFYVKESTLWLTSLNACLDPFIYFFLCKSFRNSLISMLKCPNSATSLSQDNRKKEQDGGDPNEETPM

One may read the IC50 as the point on the concentration scale where inhibition reaches its midpoint. In the case of `CCOC(=O)N1CCN(C(=O)[C@H](CCC(=O)OCC2CCCO2)NC(=O)c2cc(OCC(=O)N3CCC[C@H]3C(=O)NC3CCC3)n(-c3ccccc3)n2)CC1` (stereo partly drawn) [Example 199, 4-[(S)-2-({5-[2-((S)-2-Cyclobutylcarbamoyl-pyrrolidin-1-yl)-2-oxo-ethoxy]-1-phenyl-1H-pyrazole-3-carbonyl}-amino)-4-(tetrahydro-furan-2-ylmethoxycarbonyl)-butyryl]-piperazine-1-carboxylic acid ethyl ester], the IC50 at human P2Y12 receptor was 0.139 µM; in assay [1], 0.92 µM.
The matching figures for `CCCCOC(=O)N1CCN(C(=O)CNC(=O)c2cc(OCC(=O)N3C[C@H](O)C[C@H]3C(=O)NC3CCC3)n(-c3ccccc3)n2)CC1` [Example 270, 4-[2-({5-[2-((2S,4R)-2-Cyclobutylcarbamoyl-4-hydroxy-pyrrolidin-1-yl)-2-oxo-ethoxy]-1-phenyl-1H-pyrazole-3-carbonyl}-amino)-acetyl]-piperazine-1-carboxylic acid butyl ester]: 0.04 µM and 0.017 µM.
The matching figures for `CCOC(=O)N1CCN(C(=O)[C@H](CCNC(=O)OC)NC(=O)c2cc(OCC(=O)N3CCC[C@H]3C(=O)NC3CCC3)n(-c3ccccc3)n2)CC1` [Example 93, 4-[(S)-2-({5-[2-((S)-2-Cyclobutylcarbamoyl-pyrrolidin-1-yl)-2-oxo-ethoxy]-1-phenyl-1H-pyrazole-3-carbonyl}-amino)-4-methoxycarbonylamino-butyryl]-piperazine-1-carboxylic acid ethyl ester]: 0.108 µM and 0.59 µM.
As for `CCOC(=O)N1CCN(C(=O)[C@H](CCC(=O)OCOC(=O)C(C)(C)C)NC(=O)c2cc(OCC(=O)N3CCC[C@H]3C(=O)NC3CCC3)n(-c3ccccc3)n2)CC1` [Example 139, 4-[(S)-2-({5-[2-((S)-2-Cyclobutylcarbamoyl-pyrrolidin-1-yl)-2-oxo-ethoxy]-1-phenyl-1H-pyrazole-3-carbonyl}-amino)-4-(2,2-dimethyl-propionyloxymethoxycarbonyl)-butyryl]-piperazine-1-carboxylic acid ethyl ester], the values for the IC50 (at human P2Y12 receptor; in assay [1]) were 0.056 µM and 0.36 µM, respectively.
In the case of `CCOC(=O)C(=O)NCC[C@H](NC(=O)c1cc(OCC(=O)N2CCC[C@H]2C(=O)NC2CCC2)n(-c2ccccc2)n1)C(=O)N1CCN(C(=O)OCC)CC1` [Example 96, 4-[(S)-2-({5-[2-((S)-2-Cyclobutylcarbamoyl-pyrrolidin-1-yl)-2-oxo-ethoxy]-1-phenyl-1H-pyrazole-3-carbonyl}-amino)-4-(ethoxyoxalyl-amino)-butyryl]-piperazine-1-carboxylic acid ethyl ester], the figures for the IC50 (on human P2Y12 receptor; in assay [1]) were 0.108 µM and 0.67 µM, respectively.
As for `CCOC(=O)N1CCN(C(=O)[C@H](CCC(=O)O)NC(=O)c2cc(OCC(=O)N3CCC[C@H]3C(=O)NCC3CC3)n(-c3ccc(F)c(F)c3)n2)CC1` [Example 84, 4-((S)-4-Carboxy-2-{[5-[2-((S)-2-cyclopropylmethylcarbamoyl-pyrrolidin-1-yl)-2-oxo-ethoxy]-1-(3,4-difluoro-phenyl)-1H-pyrazole-3-carbonyl]-amino}-butyryl)-piperazine-1-carboxylic acid ethyl ester], the IC50 amounted to 0.092 µM on human P2Y12 receptor and 0.55 µM in assay [1].
The matching figures for `O=C(NCC(=O)N1CCN(C(=O)OC2CCC2)CC1)c1cc(OCC(=O)N2CCC[C@H]2C(=O)NC2CCC2)n(-c2ccccc2)n1` [Example 192, 4-[2-({5-[2-((S)-2-Cyclobutylcarbamoyl-pyrrolidin-1-yl)-2-oxo-ethoxy]-1-phenyl-1H-pyrazole-3-carbonyl}-amino)-acetyl]-piperazine-1-carboxylic acid cyclobutyl ester]: 0.131 µM and 0.19 µM.
The matching figures for `CCOC(=O)N1CCN(C(=O)[C@H](CNC(C)=O)NC(=O)c2cc(OCC(=O)N3CCC[C@H]3C(=O)NC3CCC3)n(-c3ccccc3)n2)CC1` [Example 87, 4-[(S)-3-Acetylamino-2-({5-[2-((S)-2-cyclobutylcarbamoyl-pyrrolidin-1-yl)-2-oxo-ethoxy]-1-phenyl-1H-pyrazole-3-carbonyl}-amino)-propionyl]-piperazine-1-carboxylic acid ethyl ester]: 0.184 µM and 1.13 µM.
Regarding `CCOC(=O)N1CCN(C(=O)[C@H](CCC(=O)OC2CCCC2)NC(=O)c2cc(OCC(=O)N3CCC[C@H]3C(=O)NC3CCC3)n(-c3ccccc3)n2)CC1` [Example 130, 4-[(S)-2-({5-[2-((S)-2-Cyclobutylcarbamoyl-pyrrolidin-1-yl)-2-oxo-ethoxy]-1-phenyl-1H-pyrazole-3-carbonyl}-amino)-4-cyclopentyloxycarbonyl-butyryl]-piperazine-1-carboxylic acid ethyl ester], at human P2Y12 receptor, the IC50 was 0.059 µM.
For the molecule `CCCOC(=O)N1CCN(C(=O)C(NC(=O)c2cc(OCC(=O)N3CCC[C@H]3C(=O)NC3CCC3)n(-c3ccccc3)n2)C(C)F)CC1` (stereo partly drawn) [Example 175, 4-[2-({5-[2-((S)-2-Cyclobutylcarbamoyl-pyrrolidin-1-yl)-2-oxo-ethoxy]-1-phenyl-1H-pyrazole-3-carbonyl}-amino)-3-fluoro-butyryl]-piperazine-1-carboxylic acid propyl ester], the IC50 at human P2Y12 receptor turned out to be 0.179 µM.
As to `CCOC(=O)N1CCN(C(=O)[C@H](CCC(=O)O)NC(=O)c2cc(OCC(=O)N3CCC[C@H]3C(=O)NCCSC)n(-c3ccccc3)n2)CC1` [Example 3, 4-{(S)-4-Carboxy-2-[(5-{2-[(S)-2-(2-methylsulfanyl-ethylcarbamoyl)-pyrrolidin-1-yl]-2-oxo-ethoxy}-1-phenyl-1H-pyrazole-3-carbonyl)-amino]-butyryl}-piperazine-1-carboxylic acid ethyl ester], on human P2Y12 receptor, the IC50 stood at 0.183 µM.
Same read-out and setting: the result for `CCOC(=O)N1CCN(C(=O)[C@H](CCCCOC(C)=O)NC(=O)c2cc(OCC(=O)N3CCC[C@H]3C(=O)NC3CCC3)n(-c3ccccc3)n2)CC1` [Example 237, 4-[(S)-6-Acetoxy-2-({5-[2-((S)-2-cyclobutylcarbamoyl-pyrrolidin-1-yl)-2-oxo-ethoxy]-1-phenyl-1H-pyrazole-3-carbonyl}-amino)-hexanoyl]-piperazine-1-carboxylic acid ethyl ester] reads 0.03 µM; that for `CCCOC(=O)CC[C@H](NC(=O)c1cc(OCC(=O)N2CCC[C@H]2C(=O)NC2CCC2)n(-c2ccccc2)n1)C(=O)N1CCN(C(=O)OCC)CC1` [Example 133, 4-[(S)-2-({5-[2-((S)-2-Cyclobutylcarbamoyl-pyrrolidin-1-yl)-2-oxo-ethoxy]-1-phenyl-1H-pyrazole-3-carbonyl}-amino)-4-propoxycarbonyl-butyryl]-piperazine-1-carboxylic acid ethyl ester], 0.042 µM.
Same read-out and setting: the result for `CCCCOC(=O)CC[C@H](NC(=O)c1cc(OCC(=O)N2CCC[C@H]2C(=O)NC2CCC2)n(-c2ccccc2)n1)C(=O)N1CCN(C(=O)OCC)CC1` [Example 134, 4-[(S)-2-({5-[2-((S)-2-Cyclobutylcarbamoyl-pyrrolidin-1-yl)-2-oxo-ethoxy]-1-phenyl-1H-pyrazole-3-carbonyl}-amino)-4-butoxycarbonyl-butyryl]-piperazine-1-carboxylic acid ethyl ester] reads 0.042 µM; that for `CCCCOC(=O)N1CCN(C(=O)[C@H](C)NC(=O)c2cc(OCC(=O)N3CCC[C@H]3C(=O)NC3CCC3)n(-c3ccccc3)n2)CC1` [Example 186, 4-[(S)-2-({5-[2-((S)-2-Cyclobutylcarbamoyl-pyrrolidin-1-yl)-2-oxo-ethoxy]-1-phenyl-1H-pyrazole-3-carbonyl}-amino)-propionyl]-piperazine-1-carboxylic acid butyl ester], 0.016 µM; that for `CCOC(=O)N1CCN(C(=O)[C@H](CNC(=O)OC)NC(=O)c2cc(OCC(=O)N3CCC[C@H]3C(=O)NC3CCC3)n(-c3ccccc3)n2)CC1` [Example 89, 4-[(S)-2-({5-[2-((S)-2-Cyclobutylcarbamoyl-pyrrolidin-1-yl)-2-oxo-ethoxy]-1-phenyl-1H-pyrazole-3-carbonyl}-amino)-3-methoxycarbonylamino-propionyl]-piperazine-1-carboxylic acid ethyl ester], 0.111 µM.

These data come from patent US8426420B2, “Heterocyclic pyrazole-carboxamidesas P2Y12 antagonists” (Sanofi, priority 2007, dated 2013).
